Data from patent US20020151583A1, “Prevention of liver cancer by administration of simvastatin” (priority 2001, published 2002).

Key:
[1] = test system: liver cancer; assay: Clinical case reports: imaging studies of the liver (abdominal ultrasound, MRI) for new liver masses; format: in vivo, patients
Procedure: (§1) In order to avoid unforeseen side effects, the treatment was initiated at a 20 mg dose once daily for one week. The dose was then increased to 40 mg daily during the following week, and was again increased to 60 mg daily during the third week. During the fourth week, the dose was increased to 80 mg daily (two tablets of 40 mg each) and remained the same thereafter. Following the administration of simvastatin as described above, the patients' alphafetoprotein levels were monitored on a monthly basis until values reached normal levels and then every three months thereafter in association with liver function tests and coagulation studies as part of a follow-up. In addition, an abdominal ultrasound test was performed every four months in an attempt to identify any new liver masses, and MRI (magnetic resonance imaging) studies of the liver were performed.

[2] = test system: alphafetoprotein; assay: Clinical case reports: monitoring of serum alphafetoprotein level under daily oral simvastatin; format: in vivo, patients
Procedure: as §1

CCC(C)(C)C(=O)OC1C[C@@H](C)C=C2C=C[C@H](C)[C@H](CC[C@@H]3C[C@@H](O)CC(=O)O3)[C@H]21 (relative stereo) [simvastatin, butanoic acid, 2,2-dimethyl-,1,2,3,7,8,8a-hexahydro-3,7-dimethyl-8-[2-(tetrahydro-4-hydroxy-6-oxo-2H-pyran-2-yl)-ethyl]-1-naphthalenyl ester, [1S-[1α,3α,7β,8β(2S*,4S*),-8aβ]]]
liver tumor mass in repeated imaging studies ([1]; Case No. 1): never showed any liver tumor mass | liver tumor mass in repeated imaging studies ([1]; Case No. 2): never showed any liver tumor mass | liver tumor mass in repeated imaging studies ([1]; Case No. 3): never showed any liver tumor mass | subsequent development of liver cancer ([1]; patients with an elevated alphafetoprotein level who underwent treatment): None of the patients subsequently developed liver cancer | malignancy detected by careful imaging studies ([1]; patients with known liver diseases at high risk, liver diseases continued to progress): no malignancy was ever detected | time until alphafetoprotein level normalized ([2]; Case No. 1: Hepatitis B, rapidly increasing alphafetoprotein, progressively increased dosages of simvastatin): four | alphafetoprotein level after patient stopped taking simvastatin ([2]; Case No. 1: after stopping simvastatin): 33 | alphafetoprotein level after simvastatin was re-introduced ([2]; Case No. 1: re-introduced at progressively increased dosages): normalized and has remained normalized | alphafetoprotein level on maintenance dosages of simvastatin ([2]; Case No. 2): remained normalized | time until alphafetoprotein level normalized ([2]; Case No. 2: Hepatitis B, progressively increasing alphafetoprotein, increasing doses of simvastatin): ≤ 5 months | alphafetoprotein level after normalization ([2]; Case No. 3): remained normalized | time until alphafetoprotein level normalized ([2]; Case No. 3: Hepatitis C, alphafetoprotein above 50 before treatment, protocol administration): ≤ 2 months | elevation of alphafetoprotein during observation period ([2]; Case No. 4: patients with Hepatitis B and C or other liver cirrhosis, normal alphafetoprotein, simvastatin daily since diagnosis): None of these patients showed an elevation of alphafetoprotein | course of alphafetoprotein level ([2]; patients with an elevated alphafetoprotein level (above 10 ng/mL) who underwent treatment): progressively decline over several weeks to several months to normal values
